Results taken from BindingDB's records for doi:10.1074/jbc.M113.476234 (The Scripps Research Institute, 2013).

Key:
[1] = biological target: T1, Kappa-type opioid receptor (Homo sapiens, UniProt P41145); assay: [35S]GTPγS Coupling Assay
[2] = biological target: T1, Kappa-type opioid receptor; assay: β-Arrestin2 Assay

T1 sequence (P41145 whole entry): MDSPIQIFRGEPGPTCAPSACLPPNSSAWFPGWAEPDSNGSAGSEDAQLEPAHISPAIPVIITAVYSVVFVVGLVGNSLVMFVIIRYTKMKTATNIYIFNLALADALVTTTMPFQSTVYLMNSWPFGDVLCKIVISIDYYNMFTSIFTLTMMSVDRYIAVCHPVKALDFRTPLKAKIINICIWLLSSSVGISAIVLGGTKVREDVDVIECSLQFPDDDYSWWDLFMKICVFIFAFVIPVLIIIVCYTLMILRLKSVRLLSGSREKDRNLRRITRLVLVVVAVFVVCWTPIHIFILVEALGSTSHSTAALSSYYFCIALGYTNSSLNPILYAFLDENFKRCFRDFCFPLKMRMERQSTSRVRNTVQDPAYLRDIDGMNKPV

NC(N)=Nc1ccc2[nH]c3c(c2c1)C[C@@]1(O)[C@@H]2Cc4ccc(O)c5c4[C@@]1(CCN2CC1CC1)[C@H]3O5 [5'-Guanidinonaltrindole (5'-GNTI)]
IC50 [1]: 0.07 nM
IC50 [2]: 0.8 nM
